Read-outs that look alike come from different tables or passages of the source.
Experiments:
GPR139 = target: T1, GPR139 (Homo sapiens, UniProt Q6DWJ6); experiment: GPR139 Agonist titration / agonist counterscreen assay (calcium detection, HEK-GPR139 cells); format: cell-based; design: expressed in transfected cells; host or cells: HEK Aequorin cells, Maxcyte transient transfection; conditions: GPR139 Agonist Activity; for Averaged Max % Response (±St. Dev.): activity relative to known control; for EC50: read-out: EC50
T1 sequence (Q6DWJ6 1-353): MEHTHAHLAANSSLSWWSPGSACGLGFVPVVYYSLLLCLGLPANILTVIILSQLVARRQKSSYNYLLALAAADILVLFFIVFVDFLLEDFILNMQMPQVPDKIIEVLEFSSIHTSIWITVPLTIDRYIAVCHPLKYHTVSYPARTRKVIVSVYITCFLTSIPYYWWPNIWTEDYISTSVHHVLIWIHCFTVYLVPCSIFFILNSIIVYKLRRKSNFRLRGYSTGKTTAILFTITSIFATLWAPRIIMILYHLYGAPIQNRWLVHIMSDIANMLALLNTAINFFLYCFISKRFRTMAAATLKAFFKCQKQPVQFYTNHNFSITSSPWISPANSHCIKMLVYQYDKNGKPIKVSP
Procedure: GPR activity was assessed using a calcium detection assay. […] Negative control samples were treated with DMSO. […] Intracellular calcium was measured using Calcium 5.

parental HEK cells = experiment: HEK parental Agonist Counterscreen Assay (non-transfected cells); format: cell-based; conditions: for Averaged Max % Response (±St. Dev.): activity relative to known control
Source text: The high control for the agonist counterscreen was Forskolin not acetylcholine.

[1] = values printed in E-notation without unit
[2] = Homo sapiens, HEK293, HEK Agonist Activity, parental non-transfected HEK cells
[3] = HEK Agonist Activity, parental non-transfected HEK cells
[4] = HEK Agonist Activity section of Table 4 (parental HEK counterscreen)
[5] = Homo sapiens, HEK293, HEK Agonist Activity section of Table 4 (parental HEK counterscreen)

| SMILES | Averaged Max % Response (±St. Dev.) (GPR139) [%] | Lipophilic Efficiency (logD) (GPR139; based on logD) | Lipophilic Efficiency (logP) (GPR139; based on logP) | Hill Slope (GPR139; fitted dose-response curve) | Efficiency Ligand (GPR139; ligand efficiency) | EC50 (GPR139; [1]) [nM] | Efficiency Ligand (GPR139) | Hill Slope (GPR139) | Lipophilic Efficiency (logD) (GPR139) | Lipophilic Efficiency (logP) (GPR139) | EC50 (GPR139; HEK-GPR139 cells) [nM] | Lipophilic Efficiency (logD) (parental HEK cells; HEK Agonist Activity section) | Lipophilic Efficiency (logP) (parental HEK cells; HEK Agonist Activity section) | Averaged Max % Response (±St. Dev.) (parental HEK cells; HEK Agonist Activity section) [%] | EC50 (parental HEK cells; [5]) [nM] | also measured |
| --- | --- | --- | --- | --- | --- | --- | --- | --- | --- | --- | --- | --- | --- | --- | --- | --- |
| CC(CCc1ccccc1)NC(=O)Cn1cc2c(n1)CCCC2 (stereo not shown) [SR-01000137757] | 160.07 ± 33.89 | 4.32 | 4.32 | 0.09 | 0.48 | 15.3 | – | – | – | – | – | – | – | – | – | Lipophilic Efficiency (logD) (parental HEK cells; HEK Agonist Activity): 1.35; Lipophilic Efficiency (logP) (parental HEK cells; HEK Agonist Activity): 1.35; Averaged Max % Response (±St. Dev.) (parental HEK cells; HEK Agonist Activity): −12.95 ± 5.94%; EC50 (parental HEK cells; [2]): > 14100 nM |
| Cc1c2cnn(CC(=O)NC(C)c3ccccc3)c(=O)c2c(C)n1Cc1ccc(F)cc1 (stereo not shown) [SR-01000138428] | 81.78 ± 16.61 | 4.85 | 4.85 | – | 0.38 | – | – | – | – | – | – | – | – | – | – | Lipophilic Efficiency (logD) (parental HEK cells; HEK Agonist Activity): 1.03; Lipophilic Efficiency (logP) (parental HEK cells; HEK Agonist Activity): 1.03; Averaged Max % Response (±St. Dev.) (parental HEK cells; HEK Agonist Activity): −0.31 ± 7.41%; EC50 (parental HEK cells; [3]): > 14100 nM |
| COc1cc(-c2noc(CCC(=O)Nc3cccc(C)c3C)n2)cc(OC)c1OC [SR-01000139458] | 116.90 ± 31.97 | – | – | – | – | – | 0.29 | 1.12 | 2.20 | 2.20 | 556 | 0.80 | 0.80 | 16.10 ± 9.95 | – | EC50 (parental HEK cells; [4]): > 14100 nM |
| CNc1ccc(CCNC(=O)Cn2c3ccccc3c3nc(=O)cc(C)n32)cc1 [SR-01000139601] | 109.30 ± 18.80 | – | – | – | – | – | 0.31 | 0.85 | 3.57 | 3.57 | 416 | 2.04 | 2.04 | −14.37 ± 9.70 | > 14100 | – |
| Cc1nn(CC(=O)NC2CCCc3ccccc32)c(=O)c2c1sc1ccccc12 (stereo not shown) [SR-01000139982] | 89.89 ± 26.17 | – | – | – | – | – | 0.29 | 0.79 | 2.38 | 2.38 | 890 | 1.18 | 1.18 | 9.26 ± 7.81 | > 14100 | – |
| O=C(Cn1ncn2cccc2c1=O)NCCc1ccc(Cl)cc1 [SR-01000140172] | 113.63 ± 31.77 | – | – | – | – | – | 0.40 | 0.89 | 5.11 | 5.11 | 278 | 3.41 | 3.41 | 2.22 ± 10.07 | – | EC50 (parental HEK cells; [4]): > 14100 nM |
| CC(C(=O)NCCc1ccc(Cl)cc1)n1ncn2cccc2c1=O (stereo not shown) [SR-01000140260] | 114.94 ± 7.97 | 6.86 | 6.86 | 0.54 | 0.52 | 1.3 | – | – | – | – | – | – | – | – | – | Lipophilic Efficiency (logD) (parental HEK cells; HEK Agonist Activity): 2.84; Lipophilic Efficiency (logP) (parental HEK cells; HEK Agonist Activity): 2.84; Averaged Max % Response (±St. Dev.) (parental HEK cells; HEK Agonist Activity): 19.72 ± 7.61%; EC50 (parental HEK cells; [3]): > 14100 nM |
| CC(=O)N1CCSc2cc(S(=O)(=O)NC3CCC(C)CC3)ccc21 (stereo not shown) [SR-01000141798] | 62.31 ± 7.50 | – | – | – | – | – | 0.31 | 0.65 | 3.15 | 3.15 | 4600 | 2.66 | 2.66 | 2.60 ± 1.15 | > 14100 | – |
| CC(C(=O)NCCC1=CCCCC1)n1c(=O)c2cccn2c2ccccc21 (stereo not shown) [SR-01000142419] | 123.62 ± 30.65 | 4.22 | 4.22 | 0.32 | 0.36 | 106 | – | – | – | – | – | 2.10 | 2.10 | −9.79 ± 12.86 | > 14100 | – |
| O=C(CC(C(=O)N1CCc2ccccc21)n1ccnc1)NCC1COc2ccccc2O1 (stereo not shown) [SR-01000144615] | 108.00 ± 3.42 | 6.43 | 6.38 | 4.63 | 0.35 | 10.3 | – | – | – | – | – | – | – | – | – | Lipophilic Efficiency (logD) (parental HEK cells; HEK Agonist Activity): 3.29; Lipophilic Efficiency (logP) (parental HEK cells; HEK Agonist Activity): 3.24; Averaged Max % Response (±St. Dev.) (parental HEK cells; HEK Agonist Activity): −9.40 ± 4.48%; EC50 (parental HEK cells; [2]): > 14100 nM |
| O=C(CC(C(=O)N1CCc2ccccc21)n1ccnc1)N1CCCCCC1 (stereo not shown) [SR-01000144627] | 93.44 ± 12.43 | 4.94 | 4.88 | 1.08 | 0.34 | 229 | – | – | – | – | – | 3.15 | 3.09 | 28.51 ± 2.67 | > 14100 | – |
| O=C(CN1N=C(c2ccc(Cl)cc2)CCC1=O)NCCN1CCc2ccccc2C1 [SR-01000145135] | 81.84 ± 7.77 | – | – | – | – | – | 0.30 | 0.84 | 4.49 | 4.01 | 301 | 2.82 | 2.34 | −17.80 ± 4.24 | – | EC50 (parental HEK cells; [4]): > 14100 nM |
| Cc1ccc(CCNC(=O)Cn2nc(-c3ccccc3)ccc2=O)cc1 [SR-01000145157] | 83.58 ± 17.45 | 3.85 | 3.85 | 0.58 | 0.37 | 140 | – | – | – | – | – | 1.85 | 1.85 | 17.61 ± 4.99 | – | EC50 (parental HEK cells; [4]): > 14100 nM |
| Cc1ccccc1CS(=O)(=O)CCC(=O)NC(C)c1ccccc1 (stereo not shown) [SR-01000145393] | 97.82 ± 12.25 | 4.42 | 4.42 | 0.70 | 0.40 | 116 | – | – | – | – | – | 2.34 | 2.34 | 10.41 ± 2.89 | > 14100 | – |
| Cc1ccc(CNC(=O)Cn2nc(-c3ccc(C)cc3)ccc2=O)cc1 [SR-01000145456] | 88.21 ± 16.68 | – | – | – | – | – | 0.32 | 1.42 | 2.66 | 2.66 | 1300 | 1.62 | 1.62 | −11.57 ± 15.53 | > 14100 | – |

From patent US20250099420A1, “SMALL MOLECULE MODULATORS OF GPR139 COMPLEX” (University of Florida Research Foundation, Incorporated, priority 2022, published 2025)
